In patent US9040691B2, “Hydroxymethylaryl-substituted pyrrolotriazines as ALK1 inhibitors” (BAYER INTELLECTUAL PROPERTY GMBH, priority 2011, dated 2015):

What was measured:
ALK1 kinase [1] = target: T1, ALK1 kinase (Homo sapiens (Human), UniProt P37023); assay: ALK1 kinase assay (ProQinase protocol); format: biochemical; conditions: ProQinase radiometric assay, casein, γ-33P-ATP
Method: B-1b. ALK1 Kinase Assay (ProQinase Protocol)
ALK1 (Invitrogen, Carlsbad, Calif., USA) kinase activity was measured at ProQinase GmbH (Freiburg, Germany) in a radiometric assay using γ-^33P-ATP and casein (Sigma, St. Louis, Mo., USA) as substrate in 96-well PerkinElmer FlashPlates™ (Boston, Mass., USA). The compounds were tested at 10 concentrations in the range of 1×10^−4 M to 3×10^−9 M in a total volume of 50 μl with a final DMSO concentration of 1% each. The assay components were mixed in the order: • 20 μl assay buffer (70 mM HEPES-NaOH, pH 7.5, 3 mM MgCl2, 3 mM MnCl2, 2 μM sodium orthovanadate, 1.2 mM DTT); • 5 μl γ-^33P-ATP (1.0 μM in water, approx. 6×10^5 cpm per well); • 5 μl test compound solution (in 10% DMSO); • […] (200 μg/ml, 1.0 μg/50 μl final concentration)/enzyme (4 μg/ml, 20 ng/50 μl=5.5 nM final concentration) solution (1:1 mixture).
The reaction mixtures were incubated at 30° C. for 60 minutes and stopped by adding 50 μl 2% (v/v) phosphoric acid. The plates were aspirated and washed twice with 200 μl 0.9% (w/v) sodium chloride. Incorporation of ^33Pi was determined with a microplate scintillation counter (Microbeta, Wallac). All assays were performed using a BecicmanCoulter/SAGIAN™ Core System.
Median values obtained from unspecific substrate binding of labelled. ATP were set as background level, while median values measured in the absence of any inhibitor were considered to reflect full activity of ALK1 kinase. The background activity (ba) was subtracted from the full activity (fa) value as well as from the values obtained from the test compound containing samples (test compound activity, tea). The residual activity in the latter was calculated as follows: residual activity (%)=100×[(tca−ba)/(fa−ba)]
The residual activities for each concentration and the compound IC50 values were calculated using Quattro Workflow V3.1.0 (Quattro Research GmbH, Munich, Germany). The fitting model for the IC50 determinations was “Sigmoidal response (variable slope)” with parameters “top” fixed at 100% and “bottom” at 0%. The fitting method used was a least-squares fit.

[2] = system: hSmad7 mRNA in BMP9-stimulated HUVEC; assay: Smad7 target gene induction: HUVEC cell assay and TaqMan expression analysis; format: cell-based, human; conditions: Homo sapiens, 3 h, 1 ng/ml BMP9 for 3 h, Smad7 mRNA by TaqMan
Method: B-2b. Smad7 Target Gene Induction: HUVEC Cell Assay and TaqMan Expression Analysis
The in vitro potency of ALK1 inhibitors was tested in a cell-based assay. Bone morphogenetic protein 9 (BMP9) induces Smad7 mRNA expression in human vascular endothelial cells (HUVEC) via activation of ALK1.
1.5×10^4 passage 2 HUVECs (Lonza, Basel, Switzerland) per well were seeded in a 96-well plate in EBM-2 medium containing EGM-2 additives and growth factors (Lonza, CC-3156 and CC-4176). After 4 h, the medium was changed to EBM-2 with 0.2% fetal calf serum (FCS) and the cells were starved for 20 h in a humidified incubator at 37° C., 5% CO2. Test compounds were added at 11 different concentrations between 0 and 10 000 nM one hour prior to stimulation of the cells for 3 h with recombinant human BMP9 protein at 1 ng/ml (dissolved in 4 mM hydrochloric acid, 0.1% BSA at 10 μg/ml; R&D Systems, Minneapolis, Minn., USA, 3209BP). Medium was removed, and the cells were lysed in 100 μl RLT buffer (Qiagen, Hilden, Germany). RNA was isolated using the Qiagen RNeasy 96 Kit (order-No. 74182) according to manufacturer's instructions and eluted from the columns with 65 μl RNAse-free water. Reverse transcription for quantitative RT-PCR was carried out with the Omniscript Kit (Qiagen, 205113) in RNAse-free 96-well round-bottom plates. Per well, 6.8 μl of a reaction master mix containing 2 μl 10×RT-buffer, 2 μl dNTPs (5 mM each), 1.6 μl random primer N6 (125 μM), 0.25 μl Rnase Out (40 U/μl) and 1 μl Omniscript Reverse Transcriptase were added. After addition of 13.2 μl of the RNA/water mixture, plate contents were mixed, incubated for 1 h at 37° C. and the total volume adjusted to 100 μl in each well by addition of 80 μl RNAse-free water.
The quantification of human Smad7 mRNA was carried out on a TaqMan using the Eurogentec qPCR Mastermix Plus (RT-QP2X-03-075+; Cologne, Germany) and employing human L32 as housekeeping reference mRNA. Per qPCR reaction, 2.8 μl primer mix, 10 μl master mix, 2.2 μl water and 5 μl cDNA were added. Thermal cycling parameters were 2 min at 50° C., followed by 10 min at 95° C., followed by 40 cycles of melting at 95° C. for 15 sec and annealing/extending at 60° C. for 1 min.
Smad7 mRNA levels induced by 1 ng/ml BMP9 without the addition of any inhibitor were set at 100% induction, and % inhibition was calculated for each test compound with this value. For each test compound, every value was determined in quadruplicate. The IC50 values were determined using Microsoft Excel. The fitting method used was a weighted, unconstrained ML-fit.

ALK1 kinase [3] = target: T1, ALK1 kinase; assay: In vitro enzyme inhibition using scintillation of incorporated radio label (flashplate assay); format: biochemical; conditions: biotinylated α-casein, 33P-ATP, 500 nM ATP
Method: B-1a. In Vitro Enzyme Inhibition Using Scintillation of Incorporated Radio Label (Flashplate Assay)
Test compounds diluted in DMSO are mixed with a suitable substrate/co-substrate (here: biotinylated α-casein and ^33P-ATP) in a corresponding assay buffer. Addition of the enzyme of interest (here: ALK1 kinase) starts the enzyme reaction. The enzyme-catalyzed incorporation of radio label into the substrate is measured via scintillation. Incorporated radio label is separated from free radio label via specific binding of the biotinylated substrate to strepavidin-coated microtiter plates (flashplates) and concomitant washing steps. The scintillation signal intensity (counts per minutes, cpm) is proportional to the enzyme activity. Enzyme inhibition results in a decreased signal intensity. IC50 values of the test compounds are determined by cpm-versus-[I] plots.
Reaction buffer contains 50 mM Tris pH 8.0 (Sigma), 1 mM MnCl2 (Sigma), 0.01% Nonidet P40 (Fluka), 0.5× Complete EDTA-free protease inhibitors (Roche; contains a mixture of several protease inhibitors for the inhibition of serine and cysteine (but not metallo-) proteases; 1 tablet contains protease inhibitors sufficient for a 50 ml cell extract; the concentration used in this assay corresponds to 1 tablet in 100 ml).
• 1.) Stop solution: Dulbecco's PBS (PAA, Pasching, Austria), 25 mM EDTA (Sigma), 25 μM ATP (Roche), 0.05% Triton X-100 (Sigma); • 2.) Saturation buffer: Dulbecco's PBS (PAA, Pasching, Austria), 100 μM ATP (Roche), 0.2% Triton X-100 (Sigma); • 3.) Wash buffer: Dulbecco's PBS (PAA, Pasching, Austria). Enzyme Solution:
ALK1 (Invitrogen, Paisley, United Kingdom) stock solution (35.7 ng/μl) is diluted to 4 ng/μl; final concentration in the reaction is 1 ng/μl.
Dephosphorylated α-casein (Sigma) is biotinylated according to the manufacturer's protocol (Pierce, Bonn, Germany) resulting in a stock solution of 61.6 μM. Briefly, EZ-Link® Biotin reagent (sulfosuccinimidyl-6-(biotinamido)hexanoate; Pierce, Bonn, Germany) is added in equal molarity to α-casein and incubated on ice for 2 h. Afterwards, the biotin reagent is removed by dialysis (2×2 h and overnight).
A 100 mM solution of cold (unlabelled) ATP (Roche) is diluted 1:100 before each test. For the substrate mix, α-casein is diluted to 2.22 μM resulting in a final concentration of 1 μM α-casein in the reaction. Additionally, cold ATP is added to give a 1.11 μM solution which results in a final concentration of 500 nM in the reaction.
Radioactive ATP Solution:
The stock solution (9.25 MBq/25 μl of ^33P-ATP; Perkin Elmer, Rodgau, Germany) is diluted to 651.2 Bq/μl.
Compounds are dissolved in 100% DMSO (10 mM stock solution) and diluted to 2 mM. Further dilutions are made stepwise 1:3.16 in DMSO.
A volume of 9 μl substrate solution is provided into each well of a 384 well microliter plate (Greiner Bio-One, Solingen, Germany), 1 μl compound solution and 5 μl of the radioactive ATP solution are added. Enzyme reaction starts with addition of 5 μl of enzyme solution. The mixture is incubated for 60 minutes at room temperature and then stopped by addition of 10 μl stop solution. The 384 well microliter flashplates (Perkin Elmer, Rodgau, Germany) are saturated with 50 μl saturation buffer per well for at least 60 minutes. Subsequently, a volume of 20 μl is discarded and replaced with 20 μl of the stopped ALK1 reaction mixture. Binding of biotinylated substrate to the flashplate is allowed for by overnight incubation at room temperature. Bound substrate is separated from unbound components through repeated washing steps (3×50 μl washing buffer per well). Finally, 50 μl washing buffer is added, and the scintillation signal (cpm) is measured in a suitable counter (Perkin Elmer, Rodgau, Germany).

T1 sequence (P37023 22-503): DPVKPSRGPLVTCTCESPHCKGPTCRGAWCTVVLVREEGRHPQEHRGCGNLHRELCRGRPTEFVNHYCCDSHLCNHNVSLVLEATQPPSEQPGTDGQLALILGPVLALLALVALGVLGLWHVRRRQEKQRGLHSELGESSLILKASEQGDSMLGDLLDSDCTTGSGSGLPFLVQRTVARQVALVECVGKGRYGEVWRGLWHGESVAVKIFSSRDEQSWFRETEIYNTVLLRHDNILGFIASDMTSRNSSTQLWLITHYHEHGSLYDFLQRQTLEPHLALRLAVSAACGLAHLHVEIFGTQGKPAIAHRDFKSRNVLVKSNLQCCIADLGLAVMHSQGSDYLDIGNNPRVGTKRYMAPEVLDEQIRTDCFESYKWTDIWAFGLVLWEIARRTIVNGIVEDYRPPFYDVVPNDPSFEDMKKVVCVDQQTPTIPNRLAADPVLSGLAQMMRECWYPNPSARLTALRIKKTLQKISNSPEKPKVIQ

IC50 (ALK1 kinase [1])	IC50 (ALK1 kinase [3])	Compound	IC50 [2]
< 3 nM	–	CCc1cc(-c2cc(C3CCNC3)n3ncnc(N)c23)cc(F)c1CO (racemic) [Example 37, rac-{4-[4-Amino-7-(pyrrolidin-3-yl)pyrrolo[2,1-f][1,2,4]triazin-5-yl]-2-ethyl-6-fluorophenyl}-methanol]	330 nM
4 nM	–	CCc1cc(-c2cc(C3CCCNC3)n3ncnc(N)c23)cc(F)c1CO (racemic) [Example 38, rac-{4-[4-Amino-7-(piperidin-3-yl)pyrrolo[2,1-f][1,2,4]triazin-5-yl]-2-ethyl-6-fluorophenyl}-methanol]	–
5.7 nM	–	CCc1cc(-c2cc(C(O)C3CC3)n3ncnc(N)c23)cc(F)c1CO (racemic) [Example 39, rac-{4-Amino-5-[3-ethyl-5-fluoro-4-(hydroxymethyl)phenyl]pyrrolo[2,1-f][1,2,4]triazin-7-yl}-(cyclopropyl)methanol]	500 nM
124 nM	170 nM	CCc1cc(-c2cc([C@H]3CC[C@H](O)CC3)n3ncnc(N)c23)cc(F)c1CO [Example 28, trans-4-{4-Amino-5-[3-ethyl-5-fluoro-4-(hydroxymethyl)phenyl]pyrrolo[2,1-f][1,2,4]triazin-7-yl}-cyclohexanol]	–
